Values quoted from earlier work in patent US11712474B2, “Reduction of post-surgery cancer metastasis by combination of cannabidiol and NR2F6 inhibition” (priority 2019, dated 2023).
Like-named read-outs stand apart in the source and are kept apart here.

Legend:
[1] = tested on: mitogen-activated human peripheral blood mononuclear cells (PBMC)
[2] = cells of CBD-treated mice vs untreated control mice

## C=C(C)[C@@H]1CCC(C)=C[C@H]1c1c(O)cc(CCCCC)cc1O [CBD, cannabidiol]
NOD mice; CBD-treated NOD mice
  insulitis, histological examination of pancreatic islets: significantly reduced
  plasma levels of pro-inflammatory cytokines IFN-gamma and TNF-alpha: significant reduction
NOD mice; CBD-treated NOD mice, 86% in non-treated control mice
  incidence of diabetes: 30%
NOD mice; [2]
  Th1-associated cytokine production of in vitro activated T-cells and peritoneal macrophages: significantly reduced
  production of Th2-associated cytokines IL-4 and IL-10: increased
[1]
  IL-2 secretion: no effect
  increase of the concentration of measurable IFN: 68%
  measurable quantity of IL-1: decrease
  measurable quantity of TNF: decrease
[1]; high concentrations, 5-20 micrograms/ml
  synthesis and/or release of IFN: completely blocked

## CCCCCc1cc(O)c2c(c1)OC(C)(C)[C@@H]1CCC(C)=C[C@@H]21 [THC, delta-9-tetrahydrocannabinol]
[1]
  IL-2 secretion: no effect
  increase of the concentration of measurable IFN: 139%
  synthesis and/or release of IFN: completely blocked
